In the series the test system is GENE-TOX genotoxicity assays, various organisms and cells. As to the kind of experiment: GENE-TOX mutagenicity studies.
Setting [1] is: Species/Cell Type: Mammalian polychromatic erythrocytes, Assay Type: Micronucleus test, chromosome aberrations, Assay Code: MNTT, Evaluation Type: Evaluation B (Post-1980).
Where [2] appears, read: Species/Cell Type: Saccharomyces cerevisiae, Assay Type: Mitotic recombination or gene conversion, Assay Code: YEC-, Evaluation Type: Evaluation A (Pre-1980).
Where [3] appears, read: Species/Cell Type: Saccharomyces cerevisiae, Assay Type: Mitotic recombination or gene conversion, Assay Code: YEH+, Evaluation Type: Evaluation A (Pre-1980).
The mark [4] stands for this setting: Species/Cell Type: Drosophila melanogaster, Assay Type: Sex-linked recessive lethal gene mutation, Assay Code: SRL+, Evaluation Type: Evaluation A (Pre-1980).
The mark [5] stands for this setting: Species/Cell Type: Salmonella typhimurium (one or more of the five standard strains: TA98, TA100, TA1535, TA1537, and TA1538), Assay Type: Histidine reverse gene mutation, Ames assay, Assay Code: SAL+*, Activation: With metabolic activation, Evaluation Type: Evaluation A (Pre-1980).
The mark [6] stands for this setting: Species/Cell Type: Fischer rat embryo (RLV/1706) cells, Assay Type: Cell transformation, viral enhanced, Assay Code: CTR+, Evaluation Type: Evaluation A (Pre-1980).
The mark [7] stands for this setting: Species/Cell Type: Mouse lymphoma (L5178Y) cells, Assay Type: Forward gene mutation at the thymidine kinase (TK) locus, chromosome aberrations, Assay Code: L51+, Evaluation Type: Evaluation A (Pre-1980).
Where [8] appears, read: Species/Cell Type: Neurospora crassa, Assay Type: Aneuploidy, chromosome aberrations, Assay Code: NEN-, Evaluation Type: Evaluation A (Pre-1980).
Setting [9] is: Species/Cell Type: Neurospora crassa, Assay Type: Forward gene mutation, Assay Code: NEF+, Evaluation Type: Evaluation A (Pre-1980).
Setting [10] is: Species/Cell Type: Salmonella typhimurium (one or more of the five standard strains: TA98, TA100, TA1535, TA1537, and TA1538), Assay Type: Histidine reverse gene mutation, Ames assay, Assay Code: SALT, Evaluation Type: Evaluation A (Pre-1980).
Where [11] appears, read: Species/Cell Type: Bacillus subtilis (H17 vs M45), Assay Type: Rec-assay, spot test, DNA effects (bacterial DNA repair), Assay Code: REWT, Evaluation Type: Evaluation A (Pre-1980).
The mark [12] stands for this setting: Species/Cell Type: Salmonella typhimurium (one or more of the five standard strains: TA98, TA100, TA1535, TA1537, and TA1538), Assay Type: Histidine reverse gene mutation, Ames assay, Assay Code: SAL+, Evaluation Type: Evaluation A (Pre-1980).

Activity calls are given as the source filed them. How the calls were made is not given here.

Turning to `c1ccc2cc3c4c(ccc3cc2c1)CCC1OC41` (stereo not given), the mutagenic call (Species/Cell Type: Chinese hamster lung (V79) cells, Assay Type: Forward gene mutation at the HPRT or ouabain locus, Assay Code: V79+, Evaluation Type: Evaluation A (Pre-1980)) was “active; positive”.
Turning to `Oc1cc(Cl)ccc1Oc1ccc(Cl)cc1Cl`, the mutagenic call was “no conclusion” under setting [1]; “inactive; negative” (Species/Cell Type: Mouse, Sex: Female, Assay Type: Spot test, gene mutation, Assay Code: MST-, Evaluation Type: Evaluation A (Pre-1980)); “active; positive” (Species/Cell Type: Saccharomyces cerevisiae, Assay Type: Forward gene mutation, Assay Code: YEF+, Evaluation Type: Evaluation A (Pre-1980)); “inactive; negative” under setting [2]; “active; positive” under setting [3].
As to `CN(C)Cc1cc(Br)ccc1OCC(=O)NN`, the mutagenic call (Species/Cell Type: Saccharomyces cerevisiae, Assay Type: Reverse gene mutation, Assay Code: YERT, Evaluation Type: Evaluation A (Pre-1980)) is reported as “no conclusion”.
With `O=C(C#Cc1ccc([N+](=O)[O-])o1)NC1CCCCC1`, the mutagenic call (Species/Cell Type: Neurospora crassa, Assay Type: Forward gene mutation, Assay Code: NEF-, Evaluation Type: Evaluation A (Pre-1980)) was “inactive; negative”.
In the case of `CCNc1nc(NC(C)(C)C)nc(OC)n1`, the mutagenic call under setting [2] was “inactive; negative”.
For the compound `CSc1ccc2c(c1)N(CCC1CCCCN1C)c1ccccc1S2` (stereo not given), the mutagenic call was “active; positive” under setting [4]; “active; positive” (Species/Cell Type: Drosophila melanogaster, Sex: Male, Assay Type: Heritable translocation test, chromosome aberrations, Assay Code: DHT+, Evaluation Type: Evaluation A (Pre-1980)); “no conclusion” under setting [1].
With `CCCCBr`, the mutagenic call (Species/Cell Type: Escherichia coli polA (W3119 vs P3478), Assay Type: Rec-assay, DNA effects (bacterial DNA repair), Assay Code: RE1T, Evaluation Type: Evaluation A (Pre-1980)) is reported as “no conclusion”.
For the compound `CCc1cc2c(c3ccc4ccccc4c13)CCC2=O`, the mutagenic call under setting [5] is “active; positive”.
As to `[Cl][Mn][Cl]`, the mutagenic call runs as follows: (Species/Cell Type: Bacillus subtilis (H17 vs M45), Assay Type: Rec-assay, spot test, DNA effects (bacterial DNA repair), Assay Code: REW+, Evaluation Type: Evaluation A (Pre-1980)) “active; positive”; under setting [6], “active; positive”; (Species/Cell Type: Nonhuman, Assay Type: Sister-chromatid exchange (SCE) in vitro, Assay Code: SC2T, Evaluation Type: Evaluation B (Post-1980)) “no conclusion”; (Species/Cell Type: Syrian hamster embryo (SA7/SHE) cells, Assay Type: Cell transformation, viral enhanced, Assay Code: CT7+, Evaluation Type: Evaluation A (Pre-1980)) “active; positive”.
For the compound `Cc1ccc2ccc3c4ccccc4c(C)c4ccc1c2c43`, the mutagenic call under setting [4] was “active; positive”.
As to `S=C1NCCCN1`, the mutagenic call under setting [1] is “no conclusion”.
As for `CCN(CC)CCNc1ccc(C)c2sc3ccccc3c(=O)c12`, the mutagenic call was “active; positive” (Species/Cell Type: Drosophila melanogaster, Assay Type: Aneuploidy, whole sex chromosome loss, chromosome aberrations, Assay Code: DAC+M, Evaluation Type: Evaluation A (Pre-1980)); “active; positive” under setting [4]; “active; positive” (Species/Cell Type: Escherichia coli polA (W3119 vs P3478), Assay Type: Rec-assay, DNA effects (bacterial DNA repair), Assay Code: RE1+, Evaluation Type: Evaluation A (Pre-1980)); “active; positive” under setting [6]; “active; positive” under setting [7]; “inactive; negative” under setting [8]. The mutagenic call runs as follows: under setting [9], “active; positive”; under setting [5], “active; positive”; under setting [10], “no conclusion”.
In the case of `CCCCC/C=C\C/C=C\C/C=C\CCCCC(=O)O`, the mutagenic call under setting [1] was “no conclusion”.
As for `Cc1ccc2ccc3c4ccccc4cc4ccc1c2c43`, the mutagenic call under setting [4] was “active; positive”.
Consider `CCN(Cc1cccc(S(=O)(=O)O)c1)c1ccc(C(=C2C=CC(=[N+](CC)Cc3cccc(S(=O)(=O)[O-])c3)C=C2)c2ccccc2)cc1`, for which the mutagenic call under setting [11] is on record as “no conclusion”.
Take `O=S(=O)(O)c1ccc(N=Nc2c(O)ccc3ccccc23)cc1`: the mutagenic call is listed as “no conclusion” under setting [11] and “no conclusion” under setting [10].
As for `CCN(CC)CCNc1ccc(CO)c2sc3ccccc3c(=O)c12`, the mutagenic call reads like this: under setting [4], “active; positive”; (Species/Cell Type: Drosophila melanogaster, Assay Type: Sex-linked recessive lethal gene mutation, Assay Code: SRLT, Evaluation Type: Evaluation A (Pre-1980)) “no conclusion”; (Species/Cell Type: Drosophila melanogaster, Sex: Male, Assay Type: Heritable translocation test, chromosome aberrations, Assay Code: DHT-, Evaluation Type: Evaluation A (Pre-1980)) “inactive; negative”; under setting [6], “active; positive”; (Species/Cell Type: Glycine max (soybean), Assay Type: Gene mutation, Assay Code: GLM-, Evaluation Type: Evaluation A (Pre-1980)) “inactive; negative”; (Species/Cell Type: Mammalian polychromatic erythrocytes, Assay Type: Micronucleus test, chromosome aberrations, Assay Code: MNT+, Evaluation Type: Evaluation A (Pre-1980)) “active; positive”. For the same compound, the mutagenic call (Species/Cell Type: Mouse (C3H/10T1/2) cells, Assay Type: Cell transformation, Assay Code: CTH+, Evaluation Type: Evaluation A (Pre-1980)) was “active; positive”; the mutagenic call (Species/Cell Type: Mouse germ cells, Sex: Male, Assay Type: Unscheduled DNA synthesis (UDS) in vivo, DNA effects, Assay Code: UDT+, Evaluation Type: Evaluation A (Pre-1980)) was “active; positive”; the mutagenic call under setting [7] was “active; positive”; the mutagenic call (Species/Cell Type: Mouse, Sex: Female, Assay Type: Spot test, gene mutation, Assay Code: MSTT, Evaluation Type: Evaluation A (Pre-1980)) was “no conclusion”; the mutagenic call (Species/Cell Type: Mouse, Sex: Male, Assay Type: Specific locus test, gene mutation, Assay Code: SLT-, Evaluation Type: Evaluation A (Pre-1980)) is “inactive; negative”; the mutagenic call (Species/Cell Type: Mouse, Sex: Male, Assay Type: Sperm morphology, Assay Code: SPI+, Evaluation Type: Evaluation A (Pre-1980)) is “active; positive”. For the same compound, the mutagenic call was “inactive; negative” under setting [8]; “active; positive” under setting [9]; “no conclusion” (Species/Cell Type: Nonhuman bone marrow, Assay Type: Chromosome aberrations, in vivo, Assay Code: CY#T, Evaluation Type: Evaluation A (Pre-1980)); “no conclusion” (Species/Cell Type: Nonhuman, Assay Type: Chromosome aberrations in vitro, Assay Code: CY&T, Evaluation Type: Evaluation A (Pre-1980)); “active; positive” (Species/Cell Type: Nonhuman, Assay Type: Sister-chromatid exchange (SCE) in vitro, Assay Code: SC2+D, Dose Response: With dose response, Evaluation Type: Evaluation A (Pre-1980)); “active; positive” (Species/Cell Type: Nonhuman, Assay Type: Sister-chromatid exchange (SCE) in vivo, Assay Code: SC3+D, Dose Response: With dose response, Evaluation Type: Evaluation B (Post-1980)). Also, the mutagenic call (Species/Cell Type: Rodents, Sex: Male, Assay Type: Dominant lethal test, Assay Code: DLT+, Evaluation Type: Evaluation A (Pre-1980)) was “active; positive”; the mutagenic call (Species/Cell Type: Rodents, Sex: Male, Assay Type: Dominant lethal test, Assay Code: DLT-, Evaluation Type: Evaluation A (Pre-1980)) is “inactive; negative”; the mutagenic call (Species/Cell Type: Saccharomyces cerevisiae, Assay Type: Mitotic recombination or gene conversion, Assay Code: YEC+, Evaluation Type: Evaluation A (Pre-1980)) is “active; positive”; the mutagenic call under setting [3] is “active; positive”; the mutagenic call (Species/Cell Type: Saccharomyces cerevisiae, Assay Type: Reverse gene mutation, Assay Code: YER+, Evaluation Type: Evaluation A (Pre-1980)) is “active; positive”; the mutagenic call under setting [12] is “active; positive”. Further, the mutagenic call by setting is: (Species/Cell Type: Salmonella typhimurium, Assay Type: Forward and reverse gene mutation, body fluid assay, Assay Code: BFU+, Evaluation Type: Evaluation A (Pre-1980)) “active; positive”; (Species/Cell Type: Salmonella typhimurium, Assay Type: Forward and reverse gene mutation, host-mediated assay, Assay Code: HMA+, Evaluation Type: Evaluation A (Pre-1980)) “active; positive”; (Species/Cell Type: Schizosaccharomyces pombe, Assay Type: Forward gene mutation, Assay Code: YEY+, Evaluation Type: Evaluation A (Pre-1980)) “active; positive”; (Species/Cell Type: Syrian hamster embryo (SHE) cells, Assay Type: Cell transformation, clonal assay, Assay Code: CTC+, Evaluation Type: Evaluation A (Pre-1980)) “active; positive”. Moreover, the call (Species/Cell Type: Nonhuman, Assay Type: In vivo carcinogenicity studies, Assay Code: CCG-L, Evaluation Type: Evaluation A (Pre-1980)) is “inactive; negative”.
In the case of `COc1c(Cl)ccc2oc3cc4c(c(OC)c3c(=O)c12)[C@@H]1C=CO[C@@H]1O4`, under setting [5], the mutagenic call is “active; positive”.
As to `Nc1cc(N)c(N=Nc2ccc(S(=O)(=O)O)cc2)cc1N=Nc1ccc(S(=O)(=O)O)cc1` (tested in a mixture with another compound), under setting [12], the mutagenic call is “active; positive”.

For the origin of these results see PubChem BioAssay AID1259408 (Genetic Toxicology Data Bank (GENE-TOX), 2018).
